Like-named read-outs stand apart in the source and are kept apart here. Where no end group is shown, it is not given here.
Key:
α6/3β2β3 nAChR [1] = assay type: cell-based, human
α6/3β2β3 nAChR [2] = tested on: α6/3β2β3 nAChR
Description: In one embodiment, FLIPR assay is used to identify agonists of 6β2β3 nAChR (including chimeric α6/3β2β3 nAChR as described above) mediated calcium flux. In this assay, the recombinant cells are incubated with a calcium sensitive dye (such as Ca5), exposed to a test compound, and calcium flux is imaged by FLIPR^TETRA.
• Spin down cells at 300×G for 5 min, aspirate supernatant, and resuspend in 10 ml plating medium. • Seed 25,000 cells/well in 50 μL (5×10^5cells/mL). • Incubate plates for 24 hours at 30° C. with 5% CO2 in a humidified atmosphere. Day 4 FLPR Assay • Wash plate with plate washer (4 washes x 100 μL/wash) using compound dilution buffer, leaving 25 μl in each well. • Add 25 μl of 2× Ca5 dye to each well. • Incubate at room temperature for 1 hr. • Wash plate with plate washer (4 washes x 100 μL/wash) using compound dilution buffer, leaving 25 μL in each well.
• Transfer plates to FLIPR for compound addition. Single addition plate of 2× agonist (25 μL). Control wells for agonists will be in column 23 and 24. […] Negative control wells received buffer+vehicle (25 μL). Functional Expression of α6β2β3 nAChR

## CO[C@H]1CC=C2CCN3CCC4=C(CC(=O)OC4)[C@]23C1 [DHbE]
α6/3β2β3 nAChR [1]
  IC100 DHBe: 10 µM
  effect on nicotine-evoked calcium flux (FLIPR signal): decreases the nicotine-evoked calcium flux in a dose-dependent manner

## CCN1C[C@]2(COC(=O)c3ccccc3N3C(=O)C[C@H](C)C3=O)CC[C@H](OC)[C@@]34[C@@H]5C[C@H]6[C@H](OC)[C@@H]5[C@](O)(C[C@@H]6OC)[C@](O)([C@@H](OC)[C@H]23)[C@@H]14 [MLA]
α6/3β2β3 nAChR [1]
  effect on nicotine-evoked calcium flux (FLIPR signal): decreases the nicotine-evoked calcium flux in a dose-dependent manner

## CNC1(C)C2CCC(C2)C1(C)C (stereo not shown) [mecamylamine]
α6/3β2β3 nAChR [1]; transfected HEK293T cells incubated at 30° C. for 24-48 hour, antagonist at various concentration 3 min, then nicotine EC80 3.5 min, FIGS. 2A-2D
  effect on nicotine-evoked calcium flux (FLIPR signal): decreases the nicotine-evoked calcium flux in a dose-dependent manner

## CN1CCCC1c1cccnc1 (stereo not shown) [nicotine]
α6/3β2β3 nAChR [2]; 2nd addition in concentration response curve experiment
  nicotine EC80: 236 nm
α6/3β2β3 nAChR [2]; concentration used as agonist challenge in antagonist protocol
  EC80 nicotine: 236 nM

## α-conotoxin MII (GCCSNPVCHLEHSNLC; ends and bridges not checked; cysteine pairing not given here; UniProt P56636 49-64, looked up)
α6/3β2β3 nAChR [1]
  effect on nicotine-evoked calcium flux (FLIPR signal): decreases the nicotine-evoked calcium flux in a dose-dependent manner

Reference: patent US20250189514A1 (priority 2022, published 2025)
